Source: US8957106B2, “Iminosugar treatment of tumors” (The Chancellor, Masters and Scholars of the University of …, priority 2007, dated 2015)

Tests used:
Assay type in all cases: cell-based
[1] = system: SKMel28 cells; assay: Acidic vesicular organelles, Lysotracker Red vital staining; conditions: SKMel28, 6 μM, 3 h and 8 h
Procedure: Tumor cells were cultured 24 h on cover glasses, treated with GC2, and processed as described in Negroiu, G., et al. J. Biol. Chem. 278, 27035-27042, 2003. The acidic vesicular compartments were detected following incubation of live cells GC2 treated with Lysotracker® Red (0.125 μl/ml culture medium) for 30 min at 37° C. Fixed cells were incubated with the following primary antibodies: mouse anti-EEA1 (1:100), human-CD107A (anti-Lamp1) (1:50), a mouse anti-α tubulin (1:200) followed by an appropriate Alexa Fluor® 488 conjugated secondary antibodies (1:400) or with Alexa Fluor® 594 phalloidin. Finally, nuclei of fixed cells were stained with 5 mM Hoechst dye 33342. Cells were washed three times with PBS and mounted in Vectashield® mounting medium.
Acidic compartments of untreated and GC2-treated tumor cells were differentiated using a lysosomotropic agent LysoTracker® Red (LT), a marker for tracking acidic organelles in live cells. These probes can be used to investigate the acidification of lysosomes and alteration of their function or trafficking that occur in the cell. In untreated SKMel28 cells (FIG. 5Aa) the LT probe has a moderate fluorescence as fine punctate structures distributed within the entire cell cytoplasm and occasionally at the cell periphery.

[2] = system: MNT-1 cells; assay: Annexin V/PI double labeling, flow cytometry, MNT-1; conditions: MNT-1, 6 μM
Procedure: Apoptosis in GC2-treated melanoma cells was detected using Annexin V and PI double labeling assay, see van Engeland, M., et al., Cytometry, 31, 1-9, 1998. Annexin V/PI labeling was applied to both fluorescence microscopy and flow cytometry following the protocol supplied by the manufacturer. Briefly, for fluorescence microscopy analysis adherent cells (approximately 16×10^4) treated with GC2 were washed with annexin V binding buffer, and incubated with Alexa Fluor® 488 Annexin V (5 μl in 1 ml annexin V binding buffer) for 15 min at RT, in the dark, to which 0.2 μg PI was added. Live cells were washed with annexin V binding buffer and examined by microscopy. For flow cytometric analysis, cells treated with GC2 were harvested by trypsinisation and a number of viable cells was counted. 16×10^4 cells were re-suspended in 0.2 ml annexin V binding buffer and treated in the same were adherent cells. Finally, labeled cells were analyzed with a FACScan™ using CellQuest™ software (Becton Dickinson, San Jose, Calif.).
Cells cultured under normal conditions for 24 h were further treated for 5 h, 8 h or 24 h with 6 μM of GC2, labeled with annexin V and PI and quantitatively analyzed by flow cytometry for viable, apoptotic and necrotic populations (FIG. 7).

[3] = system: MMP-2 secreted by T11 glioblastoma multiform cells; assay: MMP analysis by SDS-PAGE gelatin zymography; conditions: 20 h
Procedure: T11 cells were grown in a complete DMEM medium until they reached 80% confluency. The cells were washed using DMEM medium without serum and incubated for 20 h with various concentrations of GC2 shown in preliminary experiments not to affect cell viability. The culture medium was collected, centrifuged at 2000 rpm, for 5 min, to remove the cells in suspension. The culture medium was further concentrated five times by ultrafiltration on centricon membranes (molecular weight cut off 30,000 from Milipore). Three parts of medium containing equal amounts of protein (20 μg) were mixed with one part of Laemmnli buffer without reducing agent. Samples were applied on a gel of 8% polyacrylamide impregnated with 0.5 mg/ml denaturated type I collagen (gelatin) and separated electrophoretically. […]
To investigate if GC2 treatment interferes with secretion of MMPs a glioblastoma multiform cell line, T11 previously tested for its capacity to secrete MMP-2 was used. Cells were cultured for 20 h in the presence of different concentrations of GC2, established by preliminary experiments to be nontoxic for this cell line, and medium was concentrated and analyzed by Sodium Dodecyl Sulphate PolyAcrylamide Gel Electrophoresis (SDS-PAGE) gelatin zymography. […]

[4] = system: MNT-1 melanoma cells; assay: MTS cell viability assay, MNT-1; conditions: Homo sapiens, MNT-1, 24 h, read-out: IC50 (concentration reducing number of viable cells by 50%)
Procedure: (§1) Cells were cultured at indicated densities for 24 h, medium was removed and the incubation was continued in a fresh culture medium containing various GC2 or DTIC concentrations. In control experiments, cells were grown in a culture medium containing GC2 buffer.
(§2) The standard […] (MTS)-3-(4,5-dimethylthiazol-2-yl)-5-(3-carboxymethoxyphenyl)-2-(4-sulphophenyl)-2H-tetrazolium inner salt solution assay was performed in order to examine the cytotoxic/cytostatic effect of GC2 on melanoma cells. Briefly, 7.5×10^3 cells were seeded in 96-well microtiter plates (Nunc). After an overnight incubation, serial dilutions of GC2 or DTIC were added in triplicate to a final volume of 100 μl. The blank was represented by a culture medium without cells containing the highest GC2 or DTIC concentration. After 24 h of incubation 20 μl MTS was added to each well and all samples were incubated for 3 h at 37° C. An absorbance of each well was read at 450 nm in a microplate reader. A percentage of cell viability was calculated considering that 100% cell viability was represented by an absorbance of untreated samples […]. Alternatively, the number of viable cells was determined by Trypan blue exclusion test. Melanoma cells treated with GC2 were trypsinized and cells negative for blue staining (viable cells) were counted using a hemocytometer. […]

[5] = system: B16D2 melanoma cells; assay: MTS cell viability assay, B16D2; conditions: B16D2, 24 h, read-out: IC50 (concentration reducing number of viable cells by 50%)
Procedure: as §1, §2

[6] = system: MelJuSo melanoma cells; assay: MTS cell viability assay, MelJuSo; conditions: Homo sapiens, MEL-JUSO, 24 h, read-out: IC50 (concentration reducing number of viable cells by 50%)
Procedure: as §1, §2

CC(=O)O.CCCCCCCCCN1[C@@H](CO)[C@@H](O)[C@H](O)[C@@H]1CCCCCCCC [GC2, (2S,3R,4R,5S)-3,4-dihydroxy-N-nonyl-5-octyl-2 hydroxymethylpyrrolidinium acetate]
Lysotracker Red probe distribution (acidic vesicles) [1]: accumulates in large, bright red fluorescent vesicles in a time dependent manner | increase of apoptotic population versus control ([2]; 5 h): doubled | increase of necrotic fraction versus control (factor) ([2]; 5 h): 2.3 | apoptotic population ([2]; 5 h, control 3.29%): 6.94% | necrotic fraction ([2]; 5 h, control 4.24%): 10.07% | increase of apoptotic population versus control (times) ([2]; 8 h): 3.5 | increase of necrotic fraction versus control (factor) ([2]; 8 h): 2.9 | apoptotic population ([2]; 8 h, control 4.32%): 15.49% | necrotic fraction ([2]; 8 h, control 5.84%): 17.25% | increase of apoptotic population versus control (times) ([2]; 24 h): 7.6 | increase of necrotic fraction versus control (factor) ([2]; 24 h): 9.5 | necrotic fraction ([2]; 24 h, control 2.07%): 19.18% | apoptotic population ([2]; 24 h, control 3.25%): 24.86% | intensity of the MMP-2 band ([3]; 0.65 μM, 1.25 μM, 2.5 μM and 5 μM): decreasing in a concentration dependent manner | MMP-2 secretion ([3]; 5 μM): total inhibition | IC50 [4]: 7 to 8 µM | IC50 [5]: 11 µM | IC50 [6]: 7 to 8 µM
